Data on 13 molecules can be found in article PMC9513234, “Synthesis and Biological Evaluation of Termini-Modified and Cyclic Variants of the Connexin43 Inhibitor Peptide5” (Frontiers in Chemistry, 2022).

“Also recorded” adds a separate entry of the source. Where a SMILES comes first, the peptide text is derived from it. Bridges are numbered along the chain shown (N, C = ends). [ ]: non-standard residue; d: D form. The star is where a group is joined. AllylGly = C=CC[C@H](N)C(=O)O; Ethoxycarbonyl = CCOC(=O)*; Butyryl = CCCC(=O)*; Bz = O=C(c1ccccc1)*; N3 = azide

In data set [1] the test system is gap junctions in hCMVEC cells. The settings on record: 100 µM; for LY dye spread (number of LY-positive cells) as percentage of untreated control: mean ± SEM. The procedure:
We next investigated the ability of peptide5 variants to inhibit gap junctional communication using a scrape loading assay. In this assay, the cells in culture are loaded with a dye (Lucifer Yellow dilithium salt (LY), M.W. 457.25 Da) of molecular size (<1 kDa) that is able to transit through the gap junctions and the degree of dye spread is then measured by counting the number of cells that contain LY (Supplementary Material, Method 4) ^1. Consistent with our previous study, peptide5 (1) and Cbx reduced the degree of dye spread following incubation with LY (56.16 ± 2.1%; p < 0.0001 and 16.2 ± 1.1%; p < 0.0001, respectively) compared to the untreated controls (Figure 12).
(§1) Human cerebral microvascular endothelial cells (hCMVEC) were purchased from Applied Biological Materials (ABM) Inc, Canada (cat # T0259) (O'Carroll et al., 2015). Cells were cultured in 1 μg/cm^2 collagen I (Gibco) coated T75 flasks from Corning (NY, USA). The growth media was M199 media (Gibco), supplemented with 10% FBS, 1 μg/mL hydrocortisone (Sigma), 3 μg/mL human FGF (Peprotech), 10 μg/mL human EGF (Peprotech), 10 μg/mL heparin (Sigma), 2 mM Glutamax (Gibco), and 80 μM butyryl cAMP (Sigma).
For experiments hCMVECs cells were plated M199 media at a density of 4 x 10^5 cells per well in a collagen coated (1 µg/cm^2) 12-well plate the day prior to the experiment to ensure a confluent monolayer of hCMVECs. On the day of the experiment cells were pre-incubated in carbenoxolone, (100 µM) Peptide5 (5–100 µM) or modified analogues (100 µM) or M199 as a negative control. Cells were washed three times with phosphate buffered saline (PBS) without Ca^2+ or Mg^2+ and incubated in 0.05% Lucifer Yellow (LY) (Sigma), a fluorescent dye that is transferred through coupled gap junction channels (el-Fouly, Trosko, & Chang, 1987), and scrape-wounded with a size 10 carbon steel surgical blade (Swann-Morton, England). Following a 5 minute incubation at 37 °C in 95% O2 and 5% CO2 without light, the 0.05% LY solution was removed. Cells were rinsed four times with HBSS containing Ca^2+ ^+, and then fixed in 4% paraformaldehyde (PFA) in PBS at pH 7.4 for 10 minutes at room temperature. Cells were then washed 3 times in PBS to remove PFA before fluorescent imaging. Fluorescent images were visualized using a Nikon TE2000E inverted fluorescent microscope (10x magnification, 0.3 numerical aperture), and captured using a Digital Sight CCD camera and Eclipse Net software (Nikon). Three images within each well from three independent experiments were taken for analysis, and the total number of cells showing dye uptake from those that had been loaded were counted manually by masked observers. Each peptide was tested in at least an n of 2 separate experiments.

Data set [2] addresses T1, Cx43 hemichannel (Homo sapiens, UniProt P17302).
T1 construct: ischemic injury–induced ATP release from hCMVEC cells in vitro; host or cells: hCMVEC (human cerebral microvascular endothelial cells)
In words: HAIR ischemic injury-induced ATP release (hemichannel) assay, bioluminescence. Type of data set: cell-based. Conditions: hCMVEC cells, 2 h in HAIR solution, 100 µM; for ATP release compared to HAIR control (result in words) / ATP release compared to peptide5 (result in words): one-way ANOVA, Dunnett; for ATP release over untreated HAIR controls: mean ± SEM. As for the experimental part:
To test the effect of the peptide modifications on peptide5 (1) activity against hemichannels, a model of ischemic insult on a cell culture model of the brain microvasculature was used to induce Cx43 hemichannel opening and ATP release (Supplementary Material, Method 4). The cells were incubated in hypoxic-acidic ion-shifted ringers (HAIR) solution to generate disrupted pH and ion balance leading to ATP leak from the cells, which can be sampled and quantified luminometrically using a commercially available firefly luciferase assay (Molecular Probes).
as §1
For experiments hCMVECs were plated in M199 media at a density of 2.5 x 10^4 cells per well in a collagen-coated (1 µg/cm^2) 12-well plate the day prior to the experiment. Hypoxic, acidic, ion-shifted Ringer (HAIR) injury solution that mimics ionic concentrations and acid-base shifts of the interstitial space in hypoxic-ischemic brains (Bondarenko & Chesler, 2001) was used to trigger hemichannel opening as described previously (Kim et al., 2017). HAIR solution (38 mM NaCl, 13 mM NaHCO3, 3 mM Na-gluconate, 65 mM K-gluconate, 38 mM NMDG-Cl, 1 mM NaH2PO4, and 1.5 mM MgCl2) was bubbled in 95% N2, 5% CO2 gas (20 L/min) for 5 minutes and pH adjusted to 6.6 before use. To induce ischemic, cells were incubated for 2 hours in 500 µL HAIR solution +/- carbenoxolone (100 µM), Peptide5 or modified analogues (100 µM). For the negative control, hCMVEC cells were incubated for 2 hours in 500 µL standard Ringer solution 124 mM NaCl, 3 mM KCl, 26 mM NaHCO3, […], 1 mM NaH2PO4, 1.3 mM CaCl2, 1.5 MgCl2, and 10 mM glucose) adjusted to pH 7.4 before use. All incubations were carried out at 37 °C in 95% O2 and 5% CO2. At the end of each experiment, samples were removed and immediately placed on ice. The concentration of ATP in the samples was determined using a luciferin/luciferase bioluminescence reaction (ATP Determination Kit, Molecular Probes) and detected using a luminescence plate reader (FLUOStar OPTIMA FL, BMG Labtech). Standard curves were generated for each experiment from an ATP standard (0 to 500 nM) and used to convert bioluminescence units to ATP concentration. […] Only readings in the plateau phase of the reaction were included in averaging for the well value. Each peptide was tested in at least an n of 2 separate experiments.

A short description of data set [3]: Human serum stability assay (RP-HPLC). The settings on record: for stability in human serum (result in words): 25% aq. human serum, 37°C, 48 h. The procedure:
We then evaluated the N-methylated variants 7 and 8, D amino acid variants 9 and 10, and the two carbo cyclic peptides 39 and 42. Each peptide was incubated with 25% aq. human serum at 37°C, and 6 aliquots were extracted within 48 h. The stability of each peptide upon exposure to human serum was then analyzed via analytical RP HPLC, and the amount of peptide still present at each time point was recorded relative to t = 0 h.
Whole blood was collected from a healthy volunteer and stored in a covered test tube and was allowed to clot by leaving it undisturbed at r.t. for ca. 1 h. The clot was removed by centrifugation at 1,000-2,000 x g for 10 min and the resulting supernatant was designated as the serum. The serum was collected and stored in 0.5 mL aliquots, whereby the samples were stored at - 20 °C.
200 µM concentration of peptide was incubated in 25% aq. human serum (1.7 mL) and left to shake at 37 °C. Aliquots of human serum-peptide mixture (270 µL) were taken at given times (0 h, 1 h, 4 h, 8 h, 24 h, and 48 h) and threefold excess of acetonitrile (810 µL) was added to the aliquot and left for 1 h at 0 °C. The samples underwent centrifugation (14,500 rpm) for 30 min at r.t. and the supernatant was subsequently collected. Upon evaporation of the solvents, the resulting dry, pale-yellow residue was dissolved in water containing 0.1 % TFA.
The dissolved solution was analysed via analytical RP HPLC and the quantity of the peptide was expressed as a percentage relative to the peptide peak area obtained at time zero (i.e. 100% peptide amount at t = 0 h). A scatterplot graph representing percentage of peptide versus time was generated.

T1 sequence (P17302 whole entry): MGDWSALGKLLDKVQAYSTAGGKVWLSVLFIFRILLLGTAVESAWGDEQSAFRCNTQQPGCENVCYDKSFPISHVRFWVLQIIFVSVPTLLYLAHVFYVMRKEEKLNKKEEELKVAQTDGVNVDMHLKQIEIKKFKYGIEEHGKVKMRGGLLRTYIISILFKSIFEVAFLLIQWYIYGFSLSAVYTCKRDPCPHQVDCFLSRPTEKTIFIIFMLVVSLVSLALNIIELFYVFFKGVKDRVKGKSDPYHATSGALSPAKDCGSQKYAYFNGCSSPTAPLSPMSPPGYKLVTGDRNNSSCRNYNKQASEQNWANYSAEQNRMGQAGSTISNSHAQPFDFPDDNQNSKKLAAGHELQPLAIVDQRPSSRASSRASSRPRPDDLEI

As to `CC1(C)[C@@H](OC(=O)CCC(=O)O)CC[C@]2(C)[C@H]3C(=O)C=C4[C@@H]5C[C@@](C)(C(=O)O)CC[C@]5(C)CC[C@@]4(C)[C@]3(C)CC[C@@H]12` [Cbx, carbenoxolone, reference compound], the “LY dye spread (number of LY-positive cells) as percentage of untreated control” value in data set [1] is 16.2 ± 1.1%. Take `CC(C)C[C@H](NC(=O)[C@H](Cc1ccccc1)NC(=O)[C@H](CS)NC(=O)[C@H](CC(=O)O)NC(=O)[C@@H](N)C(C)C)C(=O)N[C@@H](CO)C(=O)N[C@@H](CCCNC(=N)N)C(=O)N1CCC[C@H]1C(=O)N[C@H](C(=O)N[C@@H](CCC(=O)O)C(=O)N[C@H](CCCCN)C(=O)N[C@H](C(=O)O)[C@@H](C)O)[C@@H](C)O` [Peptide 9, H2N-VDCFLSRPTEkT-CO2H] (H-VDCFLSRPTE[dK]T-OH): in data set [1], the “LY dye spread compared to peptide5 (result in words)” value (shortened to “LY dye spread compared to peptide5”) was “not statistically different from peptide5” and the “LY dye spread (number of LY-positive cells) as percentage of untreated control” value came to 74.7 ± 10.4%. As to `CC(C)C[C@H](NC(=O)[C@H](Cc1ccccc1)NC(=O)[C@H](CS)NC(=O)[C@H](CC(=O)O)NC(=O)[C@@H](N)C(C)C)C(=O)N[C@@H](CO)C(=O)N[C@H](CCCNC(=N)N)C(=O)N1CCC[C@H]1C(=O)N[C@H](C(=O)N[C@@H](CCC(=O)O)C(=O)N[C@@H](CCCCN)C(=O)N[C@H](C(=O)O)[C@@H](C)O)[C@@H](C)O` [Peptide 10, H2N-VDCFLSrPTEKT-CO2H] (H-VDCFLS[dR]PTEKT-OH), in data set [2], the “ATP release compared to HAIR control (result in words)” value (“ATP release compared to HAIR control” for short) was “complete lack of activity” and the “ATP release compared to peptide5 (result in words)” value (from here on “ATP release compared to peptide5”) is recorded as “significantly increased compared to peptide5 (1)”. Moreover, in data set [1], the “LY dye spread / gap junction inhibition compared to control (result in words)” value is “did not reduce the degree of dye spread compared to control” and the “LY dye spread compared to peptide5” value is reported as “significantly increased compared to peptide5 (1)”. With `CC(C)C[C@@H]1NC(=O)[C@H](Cc2ccccc2)NC(=O)[C@H](CS)NC(=O)[C@H](CC(=O)O)NC(=O)[C@H](C(C)C)NC(=O)[C@@H](N)CC=CC[C@@H](C(=O)O)NC(=O)[C@H]([C@@H](C)O)NC(=O)[C@H](CCCCN)NC(=O)[C@H](CCC(=O)O)NC(=O)[C@H]([C@@H](C)O)NC(=O)[C@@H]2CCCN2C(=O)[C@H](CCCNC(=N)N)NC(=O)[C@H](CO)NC1=O` [Peptide 39] (H-[AllylGly]VDCFLSRPTEKT[AllylGly]-OH; staple 1-14), the “stability in human serum (result in words)” value in data set [3] is reported as “good stability over 48 h; also recorded: the most stable in human serum”. Turning to `CC(C)C[C@@H]1NC(=O)[C@H](Cc2ccccc2)NC(=O)[C@H](CS)NC(=O)[C@H](CC(=O)O)NC(=O)[C@H](C(C)C)NC(=O)[C@@H](N)CC=CC[C@@H](C(=O)N[C@H](C(=O)O)[C@@H](C)O)NC(=O)[C@H](CCC(=O)O)NC(=O)[C@H]([C@@H](C)O)NC(=O)[C@@H]2CCCN2C(=O)[C@H](CCCNC(=N)N)NC(=O)[C@H](CO)NC1=O` [Peptide 42] (H-[AllylGly]VDCFLSRPTE[AllylGly]T-OH; staple 1-12), the “stability in human serum (result in words)” value in data set [3] was “extremely resistant to enzymatic degradation; also recorded: the most stable in human serum”. In data set [3] (human, serum), this molecule had a share remaining at 48 h, 200 µM of about 90%. For “(CH 3 ) 2 CH 2 CH 2 OCO-NH-VDCFLSRPTEKT-CO2H (isopentyloxycarbonyl-VDCFLSRPTEKT-OH) [Peptide 3]”, in data set [2], the “ATP release over untreated HAIR controls” value was determined as 52.6 ± 1.3% and the “ATP release compared to peptide5” value is on record as “equaling the efficacy of peptide5 (1)”. As for “CH 3 CH 2 CH 2 CO-NH-VDCFLSRPTEKT-CO2H (Butyryl-VDCFLSRPTEKT-OH) [Peptide 5]”, in data set [2], the “ATP release over untreated HAIR controls” value was determined as 57.3 ± 12.4% and the “ATP release compared to peptide5” value is given as “equaling the efficacy of peptide5 (1)”.

Consider “CH 3 CH 2 CH 2 CO-NH-VDCFLSRPTEKT-CONH 2 (Butyryl-VDCFLSRPTEKT-NH2) [Peptide 14]”, for which the “LY dye spread compared to peptide5” value in data set [1] is “significantly increased dye spread relative to peptide5 (1)”. On to “CH 3 CH 2 OCO-NH-VDCFLSRPTEKT-CO2H (Ethoxycarbonyl-VDCFLSRPTEKT-OH) [Peptide 2]”, for which the “ATP release compared to HAIR control” value in data set [2] is “did not reduce ATP release compared to HAIR control”. Also, in data set [1], the “LY dye spread compared to peptide5” value is given as “significantly increased dye spread relative to peptide5 (1)”. Take “CH 3 CH 2 OCO-NH-VDCFLSRPTEKT-CONH 2 (Ethoxycarbonyl-VDCFLSRPTEKT-NH2) [Peptide 11]”: in data set [1], the “LY dye spread compared to peptide5” value is “significantly increased dye spread relative to peptide5 (1)”. Consider “H2N-VDCFLSRPTEKT-CH 2 OH (H-VDCFLSRPTEKT-CH2OH) [Peptide 15]”, for which, in data set [1], the “LY dye spread compared to peptide5” value is recorded as “significantly increased dye spread relative to peptide5 (1)”. For the molecule “N 3 -VDCFLSRPTEKT-CO2H (N3-VDCFLSRPTEKT-OH) [Peptide 6]”, in data set [2], the “ATP release compared to HAIR control” value is listed as “complete lack of activity; also recorded: did not reduce ATP release compared to HAIR control” and the “ATP release compared to peptide5” value is listed as “significantly increased compared to peptide5 (1)”. Further, in data set [1], the “LY dye spread compared to peptide5” value is reported as “significantly increased dye spread relative to peptide5 (1)”. Turning to “PhCO-NH-VDCFLSRPTEKT-CO2H (Bz-VDCFLSRPTEKT-OH) [Peptide 4]”, the “ATP release compared to HAIR control” value in data set [2] is listed as “did not reduce ATP release compared to HAIR control”. The “LY dye spread compared to peptide5” value in data set [1] was “significantly increased dye spread relative to peptide5 (1)”.
